Drawing on publication PMC6934184, “Selective DNA-PKcs inhibition extends the therapeutic index of localized radiotherapy and chemotherapy” (The Journal of Clinical Investigation, 2019), this text covers inhibition for one molecule.

This assay has as its target T1, ZAK (Homo sapiens, UniProt Q9NYL2).
T1 construct: purchased Thermo Fisher Scientific (Life Technologies) SelectScreen
As to the kind of experiment: SelectScreen LanthaScreen. It is filed as binding. The note with it: read-out: % displacement. The method in brief: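 SelectScreen broad panel; activity (Z'LYTE, Adapta) plus binding formats. ATP: Km app for CSF1R Z'LYTE; 10 for CAMK1 Adapta. Readout = % per kinase.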
On the technique in general: TR-FRET usually uses a lanthanide donor and a delayed reading to cut background.

T1 sequence (Q9NYL2 whole entry): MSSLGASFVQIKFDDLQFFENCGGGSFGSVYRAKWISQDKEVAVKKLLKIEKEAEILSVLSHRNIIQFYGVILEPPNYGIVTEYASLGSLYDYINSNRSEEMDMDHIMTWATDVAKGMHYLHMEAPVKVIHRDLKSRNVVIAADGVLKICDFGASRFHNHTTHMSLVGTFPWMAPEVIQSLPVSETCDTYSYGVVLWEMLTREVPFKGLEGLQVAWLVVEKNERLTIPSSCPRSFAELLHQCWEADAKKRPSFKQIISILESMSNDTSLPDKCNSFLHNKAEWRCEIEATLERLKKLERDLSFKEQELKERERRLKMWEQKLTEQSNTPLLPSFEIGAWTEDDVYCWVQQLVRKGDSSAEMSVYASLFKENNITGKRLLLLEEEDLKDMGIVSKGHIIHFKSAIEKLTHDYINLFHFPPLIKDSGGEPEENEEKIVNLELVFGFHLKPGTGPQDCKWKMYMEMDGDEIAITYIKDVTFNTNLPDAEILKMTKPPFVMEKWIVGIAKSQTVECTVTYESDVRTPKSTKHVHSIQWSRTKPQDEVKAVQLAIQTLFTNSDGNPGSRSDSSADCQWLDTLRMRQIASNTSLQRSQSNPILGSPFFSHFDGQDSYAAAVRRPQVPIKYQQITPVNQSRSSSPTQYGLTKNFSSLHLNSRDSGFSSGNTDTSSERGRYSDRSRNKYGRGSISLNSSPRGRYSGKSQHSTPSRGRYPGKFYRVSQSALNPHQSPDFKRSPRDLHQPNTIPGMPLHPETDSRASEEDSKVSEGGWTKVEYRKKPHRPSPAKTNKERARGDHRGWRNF

In the case of `CN(C(=O)CN1CCOCC1)c1ccc2sc3c(-c4cccc5c(=O)cc(N6CC7CCC(C6)O7)oc45)cccc3c2c1` [NU5455], the inhibition at 1 µM is -0.7%.
